Assay [1] addresses T1, AdipoR2 (UniProt Q86V24).
T1 sequence (Q86V24 1-386): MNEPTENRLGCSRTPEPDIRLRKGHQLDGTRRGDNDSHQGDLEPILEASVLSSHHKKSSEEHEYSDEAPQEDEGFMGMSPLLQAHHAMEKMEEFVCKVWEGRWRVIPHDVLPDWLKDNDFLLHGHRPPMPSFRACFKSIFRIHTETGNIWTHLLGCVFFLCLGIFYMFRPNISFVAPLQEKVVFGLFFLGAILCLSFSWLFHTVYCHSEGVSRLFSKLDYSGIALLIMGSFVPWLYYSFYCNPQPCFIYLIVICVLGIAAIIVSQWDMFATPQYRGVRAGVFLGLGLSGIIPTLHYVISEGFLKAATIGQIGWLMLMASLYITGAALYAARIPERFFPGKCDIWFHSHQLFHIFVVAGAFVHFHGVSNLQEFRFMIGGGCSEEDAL
Nature of the assay: Competitive FP assay, displacement of probe 1 from AdipoR2. Format: binding, human. Conditions: 2 µM receptor, 100 nM probe 1, 30 min, 25°C. The procedure: Unlabeled short peptide 3 was titrated against the FITC-labeled peptide and adiponectin receptor mixture. Plates were incubated at room temperature for up to 3 hours or 30 min at different temperatures. FP values were taken and IC50 values were calculated.
Master mixtures containing fluorescein-labeled probe 1 and adiponectin receptor (AdipoR1 or AdiopR2, 2 µM and probe 1 at 100 nM) in a reaction volume of 19 µl were prepared and loaded to plates. The library compounds (10 µM –0.078 µM, half dilutions) were prepared separately and transferred into the assay plates. The first and last columns of each plate were used as positive and negative control wells. Wells containing the drug only were used as controls to detect auto-fluorescence of the compounds in the total fluorescence assay. After subtraction of the background signal, data was processed and the IC50 values were determined by non-linear least square fitting using SigmaPlot 11.0.
Given that the present study is a screening study, peptide 3 was chosen as the positive control for cost-efficiency purposes.
To optimize the FP assay properly, it was necessary to assess the stability of the FP assay. The conditions for the FP assay were established by testing various parameters including incubation temperature, time, TF values, ΔmP values, and DMSO tolerance. […] In summary, the competitive FP binding assay conditions ideal for identifying adiponectin receptor agonists are: i) 2 µM adiponectin receptor, ii) 100 nM probe 1, iii) 5% final DMSO concentration (v/v), and iv) incubation for 30 min at 25°C before reading the plate.
A pilot screen against the natural product library of 10,000 compounds described above was performed at screening concentrations of 10 µM to 0.078 µM (half serial dilutions) in 5% DMSO (v/v). Controls present in each assay plate consisted of 5% DMSO (negative control) or peptide 3 (positive control).
We screened a library of 10,000 natural compounds for adiponectin agonists. […] 46 compounds that could generate IC50 curves were identified as initial hits.

Assay [2] relates to PPARα phosphorylation (AdipoR2 signaling) in MCF-7 cells. Kind of assay: Western blot of PPARα phosphorylation in MCF-7 cells. The following applies: MCF-7 cells treated at IC50 concentration for 6 h. Format: cell-based, human. The procedure:
(§1) Cells were grown to 80% confluence, harvested and aliquoted into 100 mm dishes in serum free media. Cells were allowed to attach overnight and then the serum free media was removed and then cells were washed in PBS twice. Different doses of compounds were prepared in the normal media and added to different dishes for an additional 6 h. Cells were washed 3 times with ice-cold PBS and cell lysates were prepared by scraping cells into lysis buffer A (RIPA buffer, 2 mM dithiothreitol […], 1×Halt protease inhibitor cocktail (Thermo scientific), and 1×Halt phosphatase inhibitor cocktail (Thermo scientific)). The cells were allowed to swell on ice (5 min), after which the homogenate was centrifuged. The supernatants were transferred to fresh tubes and protein concentrations were determined using the Bio-Rad protein assay (Bio-Rad Laboratories, Inc.) per manufacturer’s instructions. Aliquots of the cell lysates were stored at −80°C.
(§2) Equal amounts of total protein (50 µg) were subjected to electrophoresis (10% tris-HCl, 1.0 mm gels) and transferred to nitrocellulose membranes. Membranes were blocked in TBS containing 0.05% Tween 20 (TBST) and 5% nonfat milk or 5% BSA for 1 hour at room temperature. Appropriately diluted primary antibodies were incubated in TBST/5% nonfat milk or TBST/5% BSA for 2 h at room temperature or overnight at 4 °C. Membranes were washed in TBST three times for 15 min each. Appropriately diluted secondary antibodies were incubated in superblock blocking buffers (Thermo Scientific) for 1 h at room temperature. Membranes were washed in TBST three times for 15 min. Proteins were detected by Amersham™ ECL plus western blotting detection system (GE healthcare). The following antibodies were used: anti-AdipoR1 M18, anti-AdipoR2 C12 (Santa Cruz Biotechnology, Santa Cruz, CA), anti-p-AMPKα(T172), anti-AMPKα, and anti-β-actin (Cell Signaling, Danvers, MA).
(§3) It is well established that adiponectin activates AMPK and p38 MAPK through AdipoR1 or PPARα through AdipoR2 to mediate its downstream signaling cascades, [9], [12], [14]. […] The levels of phosphorylation of AMPK and phosphorylation of PPARα were examined and the relative expression levels of the phospho-protein to the total expression of protein levels were quantified using ImageJ software (NIH) ( Fig. 3 ).
(§4) Figure 3 Effects of hit compounds on adiponectin receptor signaling pathways. […] A total 50 µg of cell lysate was loaded to each lane. Western blot was performed follow the protocol in materials and methods section.
On the technique in general: In western blotting, separated proteins are transferred to a membrane and probed.

The subject of assay [3] is AMPK phosphorylation (AdipoR1 signaling) in MDA-MB-231 cells. Kind of assay: Western blot of AMPK phosphorylation in MDA-MB-231 cells. Format: cell-based, human. The following applies: MDA-MB-231 cells treated at IC50 concentration for 6 h. The protocol:
as §1, §2, §3, §4

Assay [4] relates to MDA-MB-231 cells. Nature of the assay: Cell viability assay (CellTiter-Blue) in MDA-MB-231 cells. Format: cell-based. Conditions: Homo sapiens, MDA-MB-231; 72 h, 20 µM to 1.2 nM; read-out: IC50 (µM) MDA-MB-231 cells, cell viability. The procedure:
All cell lines were obtained from the American Type Culture Collection (ATCC). MCF-7 and MDA-MB-231 cells were maintained in DMEM containing 10% fetal bovine serum and supplied with 1% penicillin/streptomycin. All cells were maintained in a 5% CO2 atmosphere at 37°C.
The effects of the lead compounds on cell proliferation were tested in MCF-7 and MDA-MB-231 cells. Cells were grown to 80% confluence, harvested and aliquoted into 384-well plates in a total volume of 45 µl per well. The outer wells were inoculated with sterile water to minimize evaporation from the sample wells. Cells were allowed to attach overnight and 5 µl culture media containing either vehicles or drug were added. Cell proliferation was evaluated using CellTilter-Blue reagent (Promega, China) according to manufacturer’s instructions after 72-h incubation. Fluorescence was measured with an excitation at 530 nm and emission at 590 nm. After background subtraction, cell viability values were normalized to vehicle controls and expressed as percentage of the mean of the relative vehicle controls.
To further confirm the agonistic activity of hit compounds, MDA-MB-231 and MCF-7 cells were treated with different concentrations of g-Ad or drug (20 µM to 1.2 nM) for 72 hours and cell viability was measured. Thus, four compounds (arctiin, (-)-arctigenin, matairesinol and gramine) that show agonistic activity against adiponectin receptor 1 and four compounds (deoxyschizandrin, taxifoliol, syringing and parthenolide) that show agonistic activity against adiponectin receptor 2 were identified.
For orientation: Alamar Blue is a resazurin reagent that responds to reducing activity.

Where [5] appears, read: primary screen, read-out: IC50 vs AdipoR2 (µM) Primary screen.
The mark [6] stands for this setting: validation, read-out: IC50 vs AdipoR2 (µM) Validated.

Read-outs that look alike come from different tables or passages of the source. A value given as a limit tells only on which side of the number the result lay.

From PMC3653934, “Identification of Adiponectin Receptor Agonist Utilizing a Fluorescence Polarization Based High Throughput Assay” (PLoS ONE, 2013) come the findings set out here.

A word on the IC50: it is the concentration needed to halve the response being measured.

As for `C=C1C(=O)O[C@H]2[C@H]1CC/C(C)=C/CC[C@@]1(C)O[C@@H]21` [Compound 7, Parthenolide], the IC50 in assay [1] (setting [5]) was 1.5 µM; in assay [1] (setting [6]), 1.2 ± 0.1 µM; in assay [4], over 10 µM. Also, in assay [2], the “Effect on PPARα phosphorylation level” value is “increased”. Besides, the “Effect on AMPK phosphorylation” value in assay [3] is recorded as “no effect”.
Take `COc1cc(C[C@H]2COC(=O)[C@@H]2Cc2ccc(O)c(OC)c2)ccc1O` [Compound 3, Matairesinol]: the IC50 is over 5 µM in assay [1] (setting [5]), over 5 µM in assay [1] (setting [6]) and 1.8 ± 0.6 µM in assay [4]. Moreover, the “Effect on PPARα phosphorylation level” value in assay [2] is given as “inhibited”. In assay [3], the “Effect on AMPK phosphorylation” value is on record as “elevated”.
Regarding `COc1cc2c(c(OC)c1OC)-c1c(cc(OC)c(OC)c1OC)C[C@H](C)[C@H](C)C2` [Compound 4, Deoxyschizandrin], the IC50 is 3.5 µM in assay [1] (setting [5]), 3.2 ± 0.7 µM in assay [1] (setting [6]) and over 10 µM in assay [4]. The “Effect on PPARα phosphorylation level” value in assay [2] is reported as “increased”. For the same molecule, the “Effect on AMPK phosphorylation” value in assay [3] is “decreased”.
As to `CN(C)Cc1c[nH]c2ccccc12` [Compound 9, Gramine], the IC50 in assay [1] (setting [5]) worked out at 3.6 µM; in assay [1] (setting [6]), 3.2 ± 0.2 µM; in assay [4], 9.6 ± 0.9 µM. The “Effect on PPARα phosphorylation level” value in assay [2] was “inhibited”; in assay [2] (listed as gramine), “decreased”. The “Effect on AMPK phosphorylation” value in assay [3] is given as “elevated”.
`COc1ccc(C[C@H]2COC(=O)[C@@H]2Cc2ccc(O[C@@H]3O[C@H](CO)[C@@H](O)[C@H](O)[C@H]3O)c(OC)c2)cc1OC` [Compound 1, Arctiin]: the figures for the IC50 in assay [1] (setting [5]), in assay [1] (setting [6]) and in assay [4] were over 5 µM, over 5 µM and 3.2 ± 0.3 µM, respectively. In addition, in assay [2], the “Effect on PPARα phosphorylation level” value is recorded as “inhibited”. In addition, the “Effect on AMPK phosphorylation” value in assay [3] was “elevated”.
